Reference: patent publication US8153589B2, “JNK3 as a target for the treatment of angiogenesis-related diseases” (The University of North Carolina at Chapel Hill, priority 2009, dated 2012)
Where two headings read alike, the source gives them in different places.

Experiments:
BAECs [1] = assay: Boyden chamber migration assay; assay type: cell-based, bovine
Method: Boyden chamber assays were performed as previously described (40, 41) using a 48-well chamber apparatus (NeuroProbe, Cabin John, Md.). The lower chambers of the apparatus were filled with DMEM with or without SDF-1alpha and then covered with the collagen-coated filter and the upper chambers. Cells pretreated with or without the indicated inhibitors were then added to the upper chambers. After incubating for 6 h at 37° C., cells present on the lower surface were fixed, stained and identified with the 40× objective lens on a Nikon Eclipse TS 100 inverted microscope.
To determine whether eNOS activation is required for SDF-1α-mediated endothelial cell migration, we performed scratch-wound healing and Boyden chamber migration assays in the presence of the NOS-specific inhibitor L-NMMA (19). Confluent BAECs were pretreated for one hour with 1 mM or 5 mM L-NMMA or vehicle prior to each assay. […] Endothelial cells were transfected with 1 of 3 different bovine eNOS-specific siRNAs, or mixture of all three, and 72 hours later cell lysates were examined by western blot analysis for levels of eNOS protein.

MKP7 [2] = assay: Biotin switch assay, MKP7 S-nitrosylation by NO donors in lysates of transfected HEK293T cells; assay type: biochemical
Method: (§1) Experiments were performed following the methods previously described by Dr. Stamler's laboratory (39). Cell lysates containing Flag or Myc-tagged MKP7 protein were treated with the indicated concentrations of GSNO followed by the addition of 2 volumes of HEN buffer and freshly prepared S-methyl methanethiosulfonate (10% v/v in N,N-dimethylformamide) and SDS (25% v/v) to final concentrations of 0.1 and 2.5%, respectively. Following frequent vortexing at 50° C. for 1 hour, proteins were precipitated with 3 volumes of acetone at −20° C. for 30 min. The proteins were recovered by centrifugation at 5,000×g for 5 min, followed by gentle rinsing of the pellet with 3×1 ml acetone. The pellets were then resuspended in 240 μl of HEN buffer containing 1% SDS. The resuspended protein was precipitated, rinsed and resuspended once more. For labeling, the blocked samples were mixed with 0.1 volume of biotin-HPDP (2.5 mg/ml in Me2SO) and 0.1 volume of HEN (control) or freshly prepared sodium Ascorbic acid in HEN buffer. Labeling reactions were performed in the dark at room temperature for 1 h unless otherwise indicated. To detect an MKP7 SNO protein from cells or lysates, the labeling reaction was acetone-precipitated as previously described. The washed pellet was resuspended in 250 μl of HEN/10 (HEN diluted 10-fold into H2O) containing 1% SDS, followed by addition of 750 μl of neutralization buffer (25 mM HEPES, 100 mM NaCl, 1 mM ETDA, 1% Triton X-100, pH 7.5). This material was incubated overnight at 4° C. with 40 μl of streptavidin-agarose beads. The beads were washed with 3×1 ml of wash buffer (neutralization buffer+500 mM NaCl) and 2×1 ml of neutralization buffer. The dried beads were eluted with 50 μl of HEN/10+1%-mercaptoethanol. The eluted mixture was then analyzed by SDS-PAGE, followed by immunoblotting with anti-Flag-HRP (1:5000) or antibodies.
(§2) The preceding experiments indicate that eNOS and its downstream effector JNK3 are required for SDF-1α-induced endothelial cell migration. However, the molecular mechanisms of eNOS-dependent regulation of JNK3 activity are not intuitive. In the course of exploring various potential regulatory mechanisms, we considered the possibility that regulation of JNK3 by eNOS was determined by suppression of dephosphorylation activities. When cells were incubated with sodium orthovanadate, an inhibitor of protein tyrosine and dual-specificity protein phosphatases, JNK phosphorylation increased both under basal conditions and, most prominently, after SDF-1α treatment (FIG. 3A). […] MKP7, a member of the dual-specificity family of protein phosphatases, interacts with the JNK3 scaffold protein β-arrestin2 (25). Located within the N-terminal catalytic domain of MKP7, the Cys^244 residue is highly sensitive to oxidation due to its low pKa and this oxidation is required for decreased MKP7 activity and sustained activation of JNK3 under certain conditions (26). […] MKP7 S-nitrosylation was also detected with another NO donor-DETA NONOate; the addition of DTT blocked its nitrosylation (data not shown). To further explore the nitrosylation of MKP7 by NO donors, SNOs in MKP7 were replaced with biotin (biotin switch), and peptides generated by trypsinization were purified by avidin chromatography and analyzed by MALDI-TOF and ESI-MS/MS. […]

BAECs [3] = assay: Scratch wound healing assay; assay type: cell-based, bovine; settings: L-NMMA pretreatment (1 mM or 5 mM, one hour) plus 50 ng/ml SDF-1alpha
Method: For detection of cell migration, a wound healing assay was performed as previously described (40). BAECs were grown on 35 mm wells, the monolayer was scratched with a sterile disposable rubber policeman and the edge labeled with a traced line. After injury, the cells were gently washed with normal media without serum. EC migration from the edge of the injured monolayer was quantified by measuring the area between the wound edges before and the recovered area after injury using light microscopy (Eclipse TS100, 4× objective, Nikon) and the computer program ImageJ.
To determine whether eNOS activation is required for SDF-1α-mediated endothelial cell migration, we performed scratch-wound healing and Boyden chamber migration assays in the presence of the NOS-specific inhibitor L-NMMA (19). Confluent BAECs were pretreated for one hour with 1 mM or 5 mM L-NMMA or vehicle prior to each assay. […] Similarly, cell migration in Boyden chambers was induced by SDF-1α (from 8±3 to 86±5 cells per field), but this increase in migration was inhibited by the pre-incubation of BAECs with L-NMMA (FIG. 1D). The involvement of eNOS in SDF-1α-induced endothelial cell migration was confirmed by treatment of cells with siRNAs specific for eNOS. […]

JNK3 = assay: JNK activation (phospho-JNK Western blot) in BAECs; assay type: cell-based, bovine; settings: for SDF-1α-induced JNK phosphorylation in siRNA-transfected cells: BAECs, 50 ng/ml SDF-1alpha for 10 minutes
Method: (§3) Cells were harvested in lysis buffer (1% Triton X-100, 50 mM Tris, pH 7.4, 150 mM NaCl, 1 mM Na3VO4 and 0.1% protease inhibitor tablet; Roche) and clarified by centrifugation at 16,000 g. Equal amounts of proteins were incubated with a specific antibody overnight at 4° C. with gentle rotation. Protein A/G Plus-agarose beads (Santa Cruz Biotechnology, Santa Cruz, Calif.) were used to pull down the antibody complexes. Afterward, beads were washed with lysis buffer, and immune complexes were separated by SDS-PAGE. Total cell lysates were separated by SDS-PAGE and transferred to nitrocellulose membranes.
Mitogen-activated protein kinases (MAPKs), including ERK1/2 and p38, have been reported to enhance angiogenesis (20, 21). However, the role of JNK in angiogenesis remains controversial, with studies showing both positive and negative outcomes of JNK activation. In order to determine which MAPKs are involved in SDF-1α-induced endothelial cell migration, we screened the activities and expression levels of ERK1/2, p38 and JNK following treatment of BAECs with SDF-1α. […] SDF-1α activated both JNK and ERK1/2 in a dose-dependent manner (FIG. 2B). […] Protein and mRNA for all three JNK isoforms, JNK1, JNK2 and JNK3, can be found in BAECs (FIGS. 5, A&B). In order to determine which JNK protein(s) was activated by SDF-1α in these cells we used a previously described assay (22). Exogenous JNK1, JNK2 and JNK3 proteins containing Flag or GFP-epitopes were transiently expressed in BAECs and their activities were determined via western blotting with a phospho-JNK antibody following SDF-1α treatment. […] To confirm the finding that JNK3 is the only JNK entity activated by SDF-1α, we transfected cells with siRNAs for each of the JNK proteins and then tested the effect of each siRNA for the ability to suppress SDF-1α-induced JNK activation. […] Because JNK3 was the only SDF-1α-activated JNK in endothelial cells in our studies (FIG. 2C & FIG. 5, C), we consider the phospho-JNK signals in western blots with anti-phospho-JNK antibody as the signals for activated JNK3.

ERK1/2 = ERK1/2 activation, Western blot in BAECs; assay type: cell-based, bovine; settings: L-NMMA, SDF-1α-treated BAECs
Method: as §3
Mitogen-activated protein kinases (MAPKs), including ERK1/2 and p38, have been reported to enhance angiogenesis (20, 21). However, the role of JNK in angiogenesis remains controversial, with studies showing both positive and negative outcomes of JNK activation. In order to determine which MAPKs are involved in SDF-1α-induced endothelial cell migration, we screened the activities and expression levels of ERK1/2, p38 and JNK following treatment of BAECs with SDF-1α. […] SDF-1α activated both JNK and ERK1/2 in a dose-dependent manner (FIG. 2B). […] Exogenous JNK1, JNK2 and JNK3 proteins containing Flag or GFP-epitopes were transiently expressed in BAECs and their activities were determined via western blotting with a phospho-JNK antibody following SDF-1α treatment. […]

MKP7 [4] = target: T1, MKP7 (Homo sapiens, UniProt Q9BY84, C244S); assay: Biotin switch assay, MKP7 S-nitrosylation by NO donors in lysates of transfected HEK293T cells; assay type: biochemical
T1 construct: the mutants of full-length MKP7, MKP7-C244S and MKP7-C244A; expressed in transfected cells; host or cells: HEK293T
T1 sequence (Q9BY84 1-317 C244S): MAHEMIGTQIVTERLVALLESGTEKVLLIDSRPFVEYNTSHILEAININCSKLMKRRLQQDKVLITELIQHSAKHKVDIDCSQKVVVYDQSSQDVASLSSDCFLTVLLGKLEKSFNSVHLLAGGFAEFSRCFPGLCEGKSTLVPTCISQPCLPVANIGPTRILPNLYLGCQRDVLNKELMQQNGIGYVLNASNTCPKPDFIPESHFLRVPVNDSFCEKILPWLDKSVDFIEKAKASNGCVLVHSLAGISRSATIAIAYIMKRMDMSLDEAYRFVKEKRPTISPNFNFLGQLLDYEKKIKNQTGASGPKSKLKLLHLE
Method: as §1, §2

MKP7 [5] = target: T1, MKP7; assay type: biochemical
Method: (§4) Flag-MKP7 protein was prepared from the cells transfected with Flag-MKP7 by immunoprecipitation using Flag beads (Sigma). The precipitate was washed twice with lysis buffer containing high salt (1 M NaCl) followed by 2 washes with the reaction buffer. In vitro phosphatase reactions were carried out at 37° C. for 1 hour in I.V.P.A buffer (20 mM Tris⊕HCl, pH7.0, 0.1 mM MgCl2, 1 mM MnCl2, 1 ┌g/┌1 BSA, 1 mM DTT in reduced samples) with 25 ng active JNK3 purified protein (Upstate). The reaction was stopped by the addition of 2× loading buffer followed by western blotting analysis with phospho-specific JNK and JNK antibodies.
(§5) To determine whether this S-nitrosylation event affected MKP7 activity, we performed an in vitro phosphatase activity analysis using activated JNK3 protein in a reaction with MKP7-concentrated cell lysates. […] The activities of these mutants were also evaluated using an in vitro phosphatase assay.

MKP7 [6] = assay type: biochemical
Method: as §4, §5

BAECs [7] = assay: In vitro Matrigel angiogenesis (tube formation) assay; assay type: cell-based, bovine; settings: siRNA-expressing cells
Method: Endothelial cell tube formation was analyzed with the Matrigel-based tube formation assay (40, 41). Chilled 24-well plates were coated with growth factor-reduced Matrigel (Becton Dickinson, San Jose, Calif.) that was polymerized at 37° C. for 30 min. BAECs were transfected with siRNA constructs with the Amaxa Nucleofector electroporation reagent. Three days later, cells were trypsinized, and plated at equal numbers into each Matrigel-coated well. After 18 hours of incubation in the absence or presence of SDF-1alpha, the formation of tubes was photographed (Eclipse, 10× objective, TS100Nikon). Images were quantified with ImageJ.
Endothelial cell migration is a critical step for tube formation during angiogenesis. To test the importance of JNK3 in highly ordered cell assembly processes, we examined the effect of JNK knockdown with siRNAs on the formation of capillary-like tubes in Matrigel. BAECs were transfected with JNK1 siRNA, JNK2 siRNA, JNK3 siRNA or control siRNA. After 72 hours, cells were plated on Matrigel in medium containing 50 ng/ml SDF-1α.

[8] = Myc-MKP7, GSNO 500 μM, 10 minutes

Molecule: N#CC(=C(/N)Sc1ccccc1N)/C(C#N)=C(\N)Sc1ccccc1N [U0126]
- endothelial cell migration induced by SDF-1α (BAECs [1]; 20 μM U0126 (data not shown)): decreased

Molecule: NCCN(CCN)/[N+]([O-])=N/O [DETA NONOate]
- S-nitrosylation of MKP7 (MKP7 [2]; [8]): detected

Molecule: CNC(=N)NCCC[C@H](N)C(=O)O [L-NMMA, reference compound]
- BAEC migration towards the wounded area (BAECs [3]): 17.7±2.4%
- SDF-1α-induced increase in migration in Boyden chambers (BAECs [1]; pre-incubation with L-NMMA, 50 ng/ml SDF-1alpha): inhibited
- JNK3 activation induced by SDF-1α (JNK3; 0.5-5 mM L-NMMA, 50 ng/ml SDF-1alpha for 5 minutes): specifically inhibited
- ERK activation (ERK1/2): not affected

Molecule: O[C@@H](CS)[C@@H](O)CS [DTT]
- S-nitrosylation of MKP7 (MKP7 [2]; [8]): blocked

Molecule: N[C@@H](CCC(=O)N[C@@H](CSN=O)C(=O)NCC(=O)O)C(=O)O [GSNO, nitrosoglutathione]
- nitrosylation of MKP7-ΔC (C244S) compared to MKP7-ΔC (MKP7 [4]): markedly attenuated
- S-nitrosylation of MKP7 (MKP7 [2]): S-nitrosylated
- nitrosylation of MKP7-WT and MKP7-ΔC (MKP7 [2]): strongly nitrosylated
- phosphatase activity of MKP7-ΔC (C244S) (MKP7 [5]): essentially unchanged
- MKP7 phosphatase activity (MKP7 [6]): markedly inhibited
- phosphatase activity of MKP7-WT and MKP7-ΔC (MKP7 [6]): decreased dramatically

Molecule: [Na+].[Na+].[Na+].[O]=[V]([O-])([O-])[O-] [sodium orthovanadate, reference compound]
- JNK phosphorylation (JNK3; Na3VO4 10, 100, 500 μM, basal and after 50 ng/ml SDF-1α): increased

Molecule: Oc1c2ccccc2c2c3c(cccc13)N=N2 [SP600125]
- SDF-1α-mediated endothelial cell migration (BAECs [1]; 10 μM SP600125, 50 ng/ml SDF-1alpha): 27±3 cells
- SDF-1α-mediated endothelial cell migration (BAECs [1]; 50 μM SP600125, 50 ng/ml SDF-1alpha): 20±2 cells

Molecule: JNK1 siRNA: AUAACAAAUCCCUUGCCUGACUGGC (SEQ ID NO:4) (listed as RNA, chemistry not given here)
- SDF-1α-induced JNK phosphorylation in siRNA-transfected cells (JNK3): significantly enhanced
- tube length (BAECs [7]; with 50 ng/ml SDF-1α): 438±108 μm
- tube length (BAECs [7]; without SDF-1α): 88±23 μm

Molecule: JNK2 siRNA: AGUUGAGUCU GCCACUUGUACACUG (SEQ ID NO:5) (AGUUGAGUCUGCCACUUGUACACUG; listed as RNA, chemistry not given here)
- SDF-1α-induced JNK phosphorylation in siRNA-transfected cells (JNK3): significantly enhanced
- tube length (BAECs [7]; with 50 ng/ml SDF-1α): 504±93 μm
- tube length (BAECs [7]; without SDF-1α): 121±61 μm
